Earlier results, collected in patent publication US20100178285A1, “SYNERGISTIC ANTHELMINTIC COMPOSITION” (priority 2006, published 2010).
Where two headings read alike, the source gives them in different places.

Assays:
[1] = tested on: Heligmosomoides polygyrus; conditions: in vitro, H. polygyrus
[2] = tested on: gastrointestinal nematodes of sheep and goats
[3] = tested on: mixed species of gastrointestinal nematodes; conditions: sheep, 7.5 mg/kg
[4] = sheep
[5] = tested on: gastrointestinal nematodes of sheep and goats; conditions: first farm, ten days after treatment
[6] = second farm, 10 days after treatment

SMILES | effect of inhibitor on efficacy of the cysteine proteinases [1] | reduction in faecal egg count [2, 6] [%] | reduction in faecal egg count ([2]; first farm, ten days after treatment) [%] | reduction in EPG [3] [%] | free T3 and free T4 levels ([4]; either group (7.5 and 40 mg kg(−1))) | inorganic phosphate levels ([4]; groups 1 and 2) | serum albumin level ([4]; groups 1 and 2) | serum cholesterol level ([4]; groups 1 and 2) | triiodothyronine (T3) and thyroxin (T4) levels vs control ([4]; oral 7.5 mg kg(−1) (group 1)) | levels of total T3 ([4]; oral 40 mg kg(−1) (group 2)) | levels of total T4 ([4]; oral 40 mg kg(−1) (group 2)) | alanine aminotransferase (ALT) activity ([4]; oral 7.5 and 40 mg kg(−1)) | aspartate aminotransferase (AST) activity ([4]; oral 7.5 and 40 mg kg(−1)) | creatinine kinase (CK) activity ([4]; oral 7.5 and 40 mg kg(−1)) | lactate dehydrogenase (LDH) activity ([4]; oral 7.5 and 40 mg kg(−1)) | serum alkaline phosphatase (ALP) activities ([4]; oral 7.5 and 40 mg kg(−1)) | reduction in faecal egg count [5] [%]
CC(C)C[C@H](NC(=O)[C@H]1O[C@@H]1C(=O)O)C(=O)NCCCCN=C(N)N [Group E-64, E-64] | completely inhibited | – | – | – | – | – | – | – | – | – | – | – | – | – | – | – | –
CCCSc1ccc2nc(NC(=O)OC)[nH]c2c1 [albendazole] | – | 59.4 | – | – | – | – | – | – | – | – | – | – | – | – | – | – | –
c1ccc([C@H]2CN3CCSC3=N2)cc1 [levamisole] | – | 99.4 | 98 | 99.2 | not changed | decreased | increased | increased | no significant changes | increase | decreased | increased significantly | increased significantly | increased significantly | increased significantly | decreased | 97
